In patent US8633245B2, “PAI-1 inhibitor” (Institute of Medicinal Molecular Design, Inc., priority 2008, dated 2014):

Molecular target: T1, recombinant human PAI-1 (Homo sapiens, UniProt P05121)
T1 construct: purchased Molecular Innovations, Inc
Assay: Test Example 1: human PAI-1 inhibitory activity (tPA fluorogenic substrate, pH 7.5 Tris buffer)
Assay type: biochemical
Settings: Tris buffer
Method: 50 mM Tris, 150 mM NaCl, 10 μg/ml BSA, 0.01% Tween80 (SIGMA-ALDRICH Corporation)

T1 sequence (P05121 24-402): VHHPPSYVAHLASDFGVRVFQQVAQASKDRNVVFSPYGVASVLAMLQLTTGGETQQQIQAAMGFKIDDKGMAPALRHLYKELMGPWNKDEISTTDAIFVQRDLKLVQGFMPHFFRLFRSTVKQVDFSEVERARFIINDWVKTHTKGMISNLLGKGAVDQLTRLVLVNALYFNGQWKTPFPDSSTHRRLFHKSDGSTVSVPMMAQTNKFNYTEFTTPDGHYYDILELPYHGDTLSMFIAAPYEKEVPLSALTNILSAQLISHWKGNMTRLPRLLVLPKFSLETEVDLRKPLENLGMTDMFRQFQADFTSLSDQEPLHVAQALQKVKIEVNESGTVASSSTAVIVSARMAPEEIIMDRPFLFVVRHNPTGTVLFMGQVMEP

Inhibition Rate of PAI-1 Activity (%) (Compound Concentration 5 μM) | Inhibition Rate of PAI-1 Activity (%) (Compound Concentration 10 μM) | Inhibition Rate of PAI-1 Activity (%) (Compound Concentration 25 μM) | Compound
45 | 71 | 95 | O=C(O)C(=O)N(CCCCCc1ccccc1)c1ccc(-c2ccc(OC(F)(F)F)cc2)cc1 [Compound 228]
26 | 61 | >99 | CC(C)(C)c1ccc(N(C(=O)C(=O)O)c2cccc(-c3ccc(OC(F)(F)F)cc3)c2)cc1 [Compound 158]
– | 3 | 33 | CC(C)(C)c1ccc(CN(C(=O)C(=O)O)c2ccc(-c3cccc([N+](=O)[O-])c3)cc2)cc1 [Compound 142]
61 | 86 | 95 | CCCOc1ccc(-c2ccc(OC(F)(F)F)cc2)cc1N(CCCCc1ccccc1)C(=O)C(=O)O [Compound 236]
42 | 64 | 89 | O=C(O)C(=O)N(CCCCc1ccccc1)c1ccc(N2CCOCC2)c(-c2ccc(OC(F)(F)F)cc2)c1 [Compound 243]
71 | 91 | – | CCCCCOc1ccc(N(CCCCc2ccccc2)C(=O)C(=O)O)cc1-c1ccc(OC(F)(F)F)cc1 [Compound 244]
2 | 8 | 23 | CC(C)(C)CN(C(=O)C(=O)O)c1ccc(-c2ccc(OC(F)(F)F)cc2)cc1 [Compound 255]
39 | 70 | 94 | CCCOc1ccc(N(Cc2ccccc2)C(=O)C(=O)O)cc1-c1ccc(OC(F)(F)F)cc1 [Compound 210]
83 | 78 | – | CC(C)(C)Oc1ccc(N(Cc2ccc(C(C)(C)C)cc2)C(=O)C(=O)O)cc1-c1ccc(OC(F)(F)F)cc1 [Compound 218]
9 | 16 | 36 | O=C(O)C(=O)N(c1ccc(-c2ccc(OC(F)(F)F)cc2)cc1)C1CCCCC1 [Compound 253]
88 | 94 | – | CCCCCOc1ccc(-c2ccc(OC(F)(F)F)cc2)cc1N(CCCCCc1ccccc1)C(=O)C(=O)O [Compound 242]

More lines, now with the values behind:

Compound | Inhibition Rate of PAI-1 Activity (%) (Compound Concentration 5 μM) | Inhibition Rate of PAI-1 Activity (%) (Compound Concentration 10 μM) | Inhibition Rate of PAI-1 Activity (%) (Compound Concentration 25 μM)
CC(C)(C)c1ccc(COc2ccc(-c3ccc(OC(F)(F)F)cc3)cc2/C=C/C(=O)O)cc1 [Compound 25] | 96 | 97 | 93
O=C(O)CCc1cc(-c2ccc(OC(F)(F)F)cc2)ccc1OCCCc1ccccc1 [Compound 101] | 42 | 73 | >99
O=C(O)/C=C/c1cc(-c2ccc(OC(F)(F)F)cc2)ccc1OCc1cccc(C(F)(F)F)c1 [Compound 57] | 24 | 53 | 82
O=C(O)CCc1cc(-c2ccc(OC(F)(F)F)cc2)ccc1Oc1ccc(C(=O)O)cc1 [Compound 14] | – | 3 | –
CC(C)(C)c1ccc(-c2ccc(OCc3ccccc3OC(F)(F)F)c(CCC(=O)O)c2)cc1 [Compound 67] | 37 | 70 | 94
CC(C)(C)c1ccc(COc2cccc(Oc3ccc(OC(F)(F)F)cc3)c2/C=C/C(=O)O)cc1 [Compound 85] | 40 | 61 | 85
CC(C)(C)c1ccc(Oc2cc(Oc3ccc(OC(F)(F)F)cc3)ccc2/C=C/C(=O)O)cc1 [Compound 89] | 46 | 87 | 95
Cc1ccc(-c2cccc([N+](=O)[O-])c2)cc1N(Cc1ccc(C(C)(C)C)cc1)C(=O)C(=O)O [Compound 138] | – | 4 | 61
Cc1ccc(-c2ccccc2)cc1N(Cc1ccc(C(C)(C)C)cc1)C(=O)C(=O)O [Compound 137] | – | 5 | 61
